Assays:
3T3L1 adipocytes = test: qRT-PCR of 3T3L1 adipocytes; type: cell-based; conditions: palmitate treatment
Protocol: (§1) Real-time Quantitative RT-PCR Analysis RNA (0.5-1 μg) was reverse transcribed using iScript™ cDNA Synthesis Kit (Biorad) and RT-PCR analysis was conducted using kapa SYBR green Supermix (kappa syber) and a Mastercycler Realplex (Eppendorf) the primers used are listed. Fold change in mRNA expression was calculated using the comparative cycle method (ΔΔCt).
(§2) Cell culture. Primary bone marrow derived macrophage (BMDM) was prepared by flushing the bone marrow of the tibia and femur of 6-8 week old C57/B6 mice. The cells were grown in DMEM supplemented with 15% L929-conditioned media, 10% FBS and 1% penicillin/streptomycin for 7 days. BMDM were stimulated 250 pM palmitate conjugated with BSA or BSA as a control for 24 hours, or TNFα (10 ng/ml, 410-MT-010; R&D systems), IL-6 (40 nglml, 406-ML-005; R&D systems) and IL-4 (1 Onglml, 404-ML-010; R&D systems) for 24 h. In some assays, differentiated BMDM were treated with conditioned media from 3T3-L1 adipocytes differentiated as described (Lin, et al., J Biol Chem, 2005; 280:4617-4626) and treated with 250 pM palmitate conjugated with BSA or BSA for 24 hours. In certain experiments, anti-TNFα (0.4 μg/ml, AF-410-NA, R&D systems) or anti-IL-6 (0.025 μg/ml, MAB406; R&D systems) blocking antibody or IgG control (Normal Goat IgG: AB-108-C, Rat IgG1: MAB005; R&D systems) was added to conditioned media. […]

BMDM [1] = test: qRT-PCR of BMDM (palmitate, cytokines, adipocyte conditioned media); type: cell-based, mouse; conditions: BMDMs, palmitate conjugated to BSA
Protocol: as §1
Cell culture. Primary bone marrow derived macrophage (BMDM) was prepared by flushing the bone marrow of the tibia and femur of 6-8 week old C57/B6 mice. The cells were grown in DMEM supplemented with 15% L929-conditioned media, 10% FBS and 1% penicillin/streptomycin for 7 days. BMDM were stimulated 250 pM palmitate conjugated with BSA or BSA as a control for 24 hours, or TNFα (10 ng/ml, 410-MT-010; R&D systems), IL-6 (40 nglml, 406-ML-005; R&D systems) and IL-4 (1 Onglml, 404-ML-010; R&D systems) for 24 h. In some assays, differentiated BMDM were treated with conditioned media from 3T3-L1 adipocytes differentiated as described (Lin, et al., J Biol Chem, 2005; 280:4617-4626) and treated with 250 pM palmitate conjugated with BSA or BSA for 24 hours. In certain experiments, anti-TNFα (0.4 μg/ml, AF-410-NA, R&D systems) or anti-IL-6 (0.025 μg/ml, MAB406; R&D systems) blocking antibody or IgG control (Normal Goat IgG: AB-108-C, Rat IgG1: MAB005; R&D systems) was added to conditioned media. Peritoneal macrophages were isolated as described (van Gils, et al., Nat Immunol, 2012; 13:136-143). Mice were injected intraperitoneally with 1 ml of 3% (wt/vol) thioglycolate to elicit sterile sterile peritonitis with macrophage numbers peaking on day 4. Cells were collected by lavage and used for migration assays.
Palmitate-BSA preparation. Sodium palmitate (P9767; Sigma Aldrich) was dissolved in sterile water in to make a 100-mM solution by alternating heating and vortexing until the palmitate was dissolved. Thu occurred once the solution reached 70 C. […]

BMDM [2] = test: netrin-1 ELISA of BMDM supernatants; type: cell-based, mouse
Protocol: as §2
ELISA assay. Insulin (90080; crystal Chem Inc), adiponectin (ab108785; Abeam), FFA (SFA-1; Zen Bio), TNFa (88-7064-76; ebiosciences) and netrin-1 (E91827Mu; USCN life science Inc) levels were measured in the serum using mouse standards according to manufacturer's guidelines. Netrin-1 in human serum was measured using a human-specific netrin-1 ELISA from USCN Life Science Inc (700176; mybiosource).

[3] = system: human Unc5H2 promoter-luciferase reporter; test: Unc5H2 promoter-luciferase assay (Example 4); type: cell-based; conditions: HEK293 cells
Protocol: (§3) Promoter-Luciferase assays. HEK293T cells were transfected with human NTNI or Unc5H2 promoter-luciferase reporter constructs (SwitchGear Genomics) using Lipofectamine™ 2000 (11668-019, Invitrogen) After transfection, media was changed and cells were treated with palmitate or BSA for 24 hours, in the presence or absence of the NFkB inhibitor BAY 11-7082 (10 μmol/L). Luciferase activity was measured using the DUAL-Glo Luciferase Assay system (E1910, Promega).

[4] = system: human NTNI promoter-luciferase reporter; test: NTN1 promoter-luciferase assay (Example 4); type: cell-based; conditions: HEK293 cells
Protocol: as §3

peritoneal macrophages = test: Migration of palmitate-treated peritoneal macrophages to CCL19; type: cell-based, mouse; conditions: treatment with palmitate
Protocol: as §2, with “media. Peritoneal macrophages were isolated as described (van Gils, et al., Nat Immunol, 2012; 13:136-143).” for “media.”
Migration. The migration of ATM or peritoneal macrophages to CCL19 (500 ng/ml; R&D Systems) was assessed by the xCelligence Real-time Cell Invasion and Migration system (ACEA biosciences Inc) that monitored chemotaxis every 5 minutes for over 6 h. […]

BMDM [5] = test: BMDM migration towards MCP-1 (xCelligence); type: cell-based, mouse; conditions: CoCl2-treated vs control macrophages
Protocol: Macrophage chemotaxis was measured using the Real-Time Cell Invasion and Migration xCelligence Assay System with monitoring every 3 min (Roche Applied Science). BMDM migration towards MCP-1 (100 ng/ml; R&D Systems) was measured in the presence or absence of oxLDL (50 μg/ml) and/or recombinant rat UNC5b-Fc chimera (1006-UN; R&D Systems) to block the effects of netrin-1. In a subset of experiments, cells were pre-treated with 0.1 mmol/L CoCl2 for 1 h prior to migration. J774 macrophage migration was carried out in the presence or absence of UNC5b-Fc chimera. Results of chemotaxis assays are representative of at least three independent experiments performed on triplicate samples.

BMDMs = test: qPCR of Sema3e mRNA in macrophages; type: cell-based, mouse; conditions: BMDM, CoCl2
Protocol: Total RNA was isolated from cells using TRIzol Reagent (Invitrogen). RNA (1 μg) was reverse-transcribed with an iScript cDNA Synthesis kit according to the manufacturer's instructions (Bio-Rad). KAPA SYBR FAST qPCR Master Mix was used for RT-PCR analysis. Primers used are listed in supplemental Table I. The change in mRNA expression was calculated by the comparative change in cycle method (ΔΔCT). All data were normalized to GAPDH or 28S and were expressed as fold change over the control.
RAW264.7 cells were obtained from American Type Culture Collection. Peritoneal macrophages (pMø) were collected from mice by peritoneal lavage 4 d after intraperitoneal injection of 3% (wt/vol) thioglycollate as previously described (Kunjathoor, et al., J Biol Chem., 2002, 277:49982-49988). Bone marrow derived macrophages (BMDMs) were prepared from mice as previously described (Kunjathoor, et al., J Biol Chem., 2002, 277:49982-49988). For gene expression experiments, macrophages were plated at 1×10^6 cells/well in 6 well plates. CoCl2 (0.1M solution) was obtained from Sigma and used at the concentrations indicated to mimic hypoxia. Oxidation or acetylation of LDL (50 μg/mL; Biomedical Technologies) was performed as described (Kunjathoor, et al., J Biol Chem., 2002, 277:49982-49988). Recombinant IL-4 and IFN-γ were purchased from PeproTech. Ultrapure LPS from E. coli K12 was purchased from InvivoGen.

Row | activity of Unc5b-promoter luciferase reporter [3] | activity of Ntn1-promoter luciferase reporter [4] | Structure (SMILES) | Tnfa and Il6 mRNA in adipocytes (3T3L1 adipocytes) | increase in Ntn1 mRNA (BMDM [1]) | increase in Unc5b mRNA (BMDM [1]) | secretion of netrin-1 by BMDM (ELISA) (BMDM [2]) | migration of peritoneal macrophages to CCL19 (peritoneal macrophages) | ability of BMDM to migrate to MCP-1 (BMDM [5]) | macrophage Sema3e mRNA increase (BMDMs)
1 | induced the activity | induced the activity | CCCCCCCCCCCCCCCC(=O)[O-].[Na+] [palmitate, Sodium palmitate] | induced expression | 5 fold | 3 fold | induced secretion | blocked the migration |  | 
2 |  |  | [Cl][Co][Cl] [CoCl2, Cobalt chloride] |  |  |  |  |  | strongly impaired | 5 fold
